According to patent publication US20140050720A1, “ULTRALONG COMPLEMENTARITY DETERMINING REGIONS AND USES THEREOF” (THE SCRIPPS RESEARCH INSTITUTE, priority 2012, published 2014):

Key:
Mouse NFS-60 cells = test: Proliferation assay on mouse NFS-60 cells (AlamarBlue); format: cell-based; details: 72 hours
Method: Mouse NFS-60 cells were obtained from American Type Culture Collection (ATCC), VA, and cultured in RPMI-1640 medium supplemented with 10% fetal bovine serum (FBS), 0.05 mM 2-mercapoethanol and 62 ng/ml human macrophage colony stimulating factor (M-CSF). For proliferation assay, mouse NFS-60 cells were washed three times with RPMI-1640 medium and resuspended in RPMI-1640 medium with 10% FBS and 0.05 mM 2-mercapoethanol at a density of 1.5×10^5 cells/ml. In 96-well plates, 100 μl of cell suspension was added into each well, followed by the addition of varied concentrations of bGCSF, BLV1H12 antibody, and the immunoglobulin constructs described herein, Equal volume of PBS buffer was added into the control wells. The plates were incubated at 37° C. in a 5% CO2 incubator for 72 hours. Cells were then treated with AlamarBlue (Invitrogen) ( 1/10 volume of cell suspension) for 4 hours at 37° C. Fluorescence at 595 nm for each well was read to indicate the cell viability.

Human mPB CD34+ cells = test: Proliferative activity on human granulocyte progenitors (flow cytometry); format: cell-based; details: 7 days
Method: Human mPB CD34^+ cells were purchased from AllCells. Cells were resuspended in HSC expansion medium (StemSpan SFEM, StemCell Technologies) supplemented with 1× antibiotics and the following recombinant human cytokines thrombopoietin, IL6, Flt3 ligand, and stem cell factor (100 ng/mL, R & D Systems), then plated in 96-well plates (1000 cells per well), with varied concentrations of BLV1H12-bGCSF fusion antibodies. Cells were cultured for 7 days at 37° C. in a 5% CO2 incubator, then analyzed by flow cytometry to measure cell number and expression of CD45ra and CD41. Cells were stained in staining medium (HBSS supplemented with 2% FBS and 2 mM EDTA) at 4° C. for 1 h with PECy7 anti-CD45ra and eFluor 450 anti-CD41 (eBiosciences), then washed with staining medium and analyzed. Multicolor analysis for cell phenotyping was performed on a LSR II flow cytometer (Becton Dickinson). FIGS. 10A-10E and Tables 9-10 show the human granulocyte progenitor cell proliferative activities of the Ab-GCSF fusion antibodies.

mice neutrophils = test: Neutrophils counts in mice; format: in vivo; details: mice blood, 10th day post-injection, neutrophils among white blood cells
Method: On the 10th day after injection of BLV1H12-bGCSF fusion antibodies into mice for PK study, blood samples were drawn from the mice and stained using the Diff Quick Staining Kit (Thermo Fisher Scientific, IL). Neutrophils and white blood cells were counted under microscope and the percentages of neutrophils were analyzed. FIGS. 12A-12B and Table 12 show proliferative activities of BLV1H12-bGCSF fusion antibodies on mice neutrophils that are blood stained and counted at the 10th day post-injection.

[1] = Pharmacokinetics of BLV1H12-bGCSF fusion antibodies in mice; format: in vivo; details: BALB/c mice, 70 μg injected
Method: For PK study in mice, 70 μg of the immunoglobulin constructs described herein were injected into 3 BALB/c mice per group. Blood samples were drawn from time 0 to 14 days with extended intervals and analyzed by ELISA using anti-human IgG Fc antibody with horseradish peroxidase (HRP) labeled (KPL) and anti-6×His antibody with HRP labeled (Clontech). Data were normalized by taking maximal concentration at the first time point (30 min).

Ab-bGCSF L0: bovine G-CSF replacing the knob domain of BLV1H12 CDR3H, no linker (n=0); DNA SEQ ID NO: 4
F.I. (AlamarBlue fluorescence at 595 nm, cell viability) (Mouse NFS-60 cells; 0.09876 ng/mL): 1328 | F.I. (AlamarBlue fluorescence at 595 nm, cell viability) (Mouse NFS-60 cells; 0.29627 ng/mL): 1436 | F.I. (AlamarBlue fluorescence at 595 nm, cell viability) (Mouse NFS-60 cells; 0.88881 ng/mL): 1734.765 | F.I. (AlamarBlue fluorescence at 595 nm, cell viability) (Mouse NFS-60 cells; 2.66642 ng/mL): 2189 | F.I. (AlamarBlue fluorescence at 595 nm, cell viability) (Mouse NFS-60 cells; 7.99927 ng/mL): 2680 | F.I. (AlamarBlue fluorescence at 595 nm, cell viability) (Mouse NFS-60 cells; 23.9978 ng/mL): 2899 | F.I. (AlamarBlue fluorescence at 595 nm, cell viability) (Mouse NFS-60 cells; 71.9934 ng/mL): 2921 | F.I. (AlamarBlue fluorescence at 595 nm, cell viability) (Mouse NFS-60 cells; 215.9802 ng/mL): 3416 | Number of CD45RA− CD41− (Human mPB CD34+ cells; 0.14225 ng/mL): 2601 | Number of CD45RA− CD41− (Human mPB CD34+ cells; 0.42676 ng/mL): 2253 | Number of CD45RA− CD41− (Human mPB CD34+ cells; 3.84088 ng/mL): 4399 | Number of CD45RA− CD41− (Human mPB CD34+ cells; 11.52263 ng/mL): 7262 | Number of CD45RA− CD41− (Human mPB CD34+ cells; 34.5679 ng/mL): 9902 | Number of CD45RA− CD41− (Human mPB CD34+ cells; 103.7037 ng/mL): 11500 | Number of CD45RA− CD41− (Human mPB CD34+ cells; 311.11111 ng/mL): 11500 | Number of CD45RA− CD41− (Human mPB CD34+ cells; 933.33333 ng/mL): 11900 | Number of CD45RA− CD41− (Human mPB CD34+ cells; 2800 ng/mL): 12100 | Percentage of Neutrophil (mice neutrophils): 25.05 | Percentage (normalized to maximal concentration at the first time point, 30 min) ([1]; day 0.021): 100.00% | Percentage (normalized to maximal concentration at the first time point, 30 min) ([1]; day 0.042): 91.12% | Percentage (normalized to maximal concentration at the first time point, 30 min) ([1]; day 0.083): 91.24% | Percentage (normalized to maximal concentration at the first time point, 30 min) ([1]; day 0.125): 91.56% | Percentage (normalized to maximal concentration at the first time point, 30 min) ([1]; day 0.250): 61.22% | Percentage (normalized to maximal concentration at the first time point, 30 min) ([1]; day 1.000): 44.22% | Percentage (normalized to maximal concentration at the first time point, 30 min) ([1]; day 2.000): 36.36% | Percentage (normalized to maximal concentration at the first time point, 30 min) ([1]; day 3.000): 27.38% | Percentage (normalized to maximal concentration at the first time point, 30 min) ([1]; day 8.000): 11.53% | Percentage (normalized to maximal concentration at the first time point, 30 min) ([1]; day 10.000): 12.44% | Percentage (normalized to maximal concentration at the first time point, 30 min) ([1]; day 14.000): 14.35%

Ab-bGCSF L1: bovine G-CSF replacing the knob domain of BLV1H12 CDR3H with GGGGS linkers on both ends; DNA SEQ ID NO: 5
F.I. (AlamarBlue fluorescence at 595 nm, cell viability) (Mouse NFS-60 cells; 0.09808 ng/mL): 1412.387 | F.I. (AlamarBlue fluorescence at 595 nm, cell viability) (Mouse NFS-60 cells; 0.29424 ng/mL): 1654.776 | F.I. (AlamarBlue fluorescence at 595 nm, cell viability) (Mouse NFS-60 cells; 0.88272 ng/mL): 2082.718 | F.I. (AlamarBlue fluorescence at 595 nm, cell viability) (Mouse NFS-60 cells; 2.64816 ng/mL): 2550.674 | F.I. (AlamarBlue fluorescence at 595 nm, cell viability) (Mouse NFS-60 cells; 7.94449 ng/mL): 2997.807 | F.I. (AlamarBlue fluorescence at 595 nm, cell viability) (Mouse NFS-60 cells; 23.83346 ng/mL): 3277.812 | F.I. (AlamarBlue fluorescence at 595 nm, cell viability) (Mouse NFS-60 cells; 71.50039 ng/mL): 3308.383 | F.I. (AlamarBlue fluorescence at 595 nm, cell viability) (Mouse NFS-60 cells; 214.50117 ng/mL): 3868.075 | Number of CD45RA− CD41− (Human mPB CD34+ cells; 0.30483 ng/mL): 4070 | Number of CD45RA− CD41− (Human mPB CD34+ cells; 0.91449 ng/mL): 3601 | Number of CD45RA− CD41− (Human mPB CD34+ cells; 2.74348 ng/mL): 4303 | Number of CD45RA− CD41− (Human mPB CD34+ cells; 8.23045 ng/mL): 6404 | Number of CD45RA− CD41− (Human mPB CD34+ cells; 24.69136 ng/mL): 9122 | Number of CD45RA− CD41− (Human mPB CD34+ cells; 74.07407 ng/mL): 11200 | Number of CD45RA− CD41− (Human mPB CD34+ cells; 222.22222 ng/mL): 11000 | Number of CD45RA− CD41− (Human mPB CD34+ cells; 666.66667 ng/mL): 11400 | Number of CD45RA− CD41− (Human mPB CD34+ cells; 2000 ng/mL): 11400 | Number of CD45RA− CD41− (Human mPB CD34+ cells; 6000 ng/mL): 13200 | Percentage of Neutrophil (mice neutrophils): 25.32 | Percentage (normalized to maximal concentration at the first time point, 30 min) ([1]; day 0.021): 100.00% | Percentage (normalized to maximal concentration at the first time point, 30 min) ([1]; day 0.042): 102.12% | Percentage (normalized to maximal concentration at the first time point, 30 min) ([1]; day 0.083): 104.03% | Percentage (normalized to maximal concentration at the first time point, 30 min) ([1]; day 0.125): 101.71% | Percentage (normalized to maximal concentration at the first time point, 30 min) ([1]; day 0.250): 93.90% | Percentage (normalized to maximal concentration at the first time point, 30 min) ([1]; day 1.000): 59.26% | Percentage (normalized to maximal concentration at the first time point, 30 min) ([1]; day 2.000): 56.66% | Percentage (normalized to maximal concentration at the first time point, 30 min) ([1]; day 3.000): 39.09% | Percentage (normalized to maximal concentration at the first time point, 30 min) ([1]; day 8.000): 22.21% | Percentage (normalized to maximal concentration at the first time point, 30 min) ([1]; day 10.000): 21.15% | Percentage (normalized to maximal concentration at the first time point, 30 min) ([1]; day 14.000): 21.41%
